According to patent publication US5840688A, “Eating suppressant peptides” (Research Corporation Technologies, Inc., priority 1995, dated 1998):
No end group written: not given here.

B1: apo A-IV: 46,000-Da polypeptide associated with lipoproteins; species of the cited test protein not printed (protein, UniProt P06727 21-396, looked up)
Apolipoprotein A-IV: EVSADQVATVMWDYFSQLSNNAKEAVEHLQKSELTQQLNALFQDKLGEVNTYAGDLQKKLVPFATELHERLAKDSEKLKEEIGKELEELRARLLPHANEVSQKIGDNLRELQQRLEPYADQLRTQVSTQAEQLRRQLTPYAQRMERVLRENADSLQASLRPHADELKAKIDQNVEELKGRLTPYADEFKVKIDQTVEELRRSLAPYAQDTQEKLNHQLEGLTFQMKKNAEELKARISASAEELRQRLAPLAEDVRGNLRGNTEGLQKSLAELGGHLDQQVEEFRRRVEPYGENFNKALVQQMEQLRQKLGPHAGDVEGHLSFLEKDLRDKVNSFFSTFKEKESQDKTLSLPELEQQQEQQQEQQQEQVQMLAPLES
B2: cholecystokinin (peptide, UniProt P06307 21-115, looked up)
Cholecystokinin: QPVPPADPAGSGLQRAEEAPRRQLRVSQRTDGESRAHLGALLARYIQQARKAPSGRMSIVKNLQNLDPSHRISDRDYMGWMDFGRRSAEEYEYPS
modifications: Cholecystokinin
notes: peptide proposed as affecting eating behavior
B3: human apo A-IV: entire human apolipoprotein A-IV molecule obtained from human serum, purified by preparative polyacrylamide gel electrophoresis (protein, UniProt P06727 21-396, looked up)
Apolipoprotein A-IV: B1 Apolipoprotein A-IV

Assays:
animal = conditions: in vivo; cited from earlier work
male Sprague Dawley rats [1] = assay: Feeding study: food intake after infusion into the third ventricle of 24 h fasted rats; assay type: in vivo, rat
Method: Animals used in vivo food intake studies were male Sprague Dawley rats weighing between 280 and 320 grams. The rats were housed in a room illuminated from 06:00 to 18:00 hours (twelve hour light-dark cycle) with a temperature maintained at 21 ±1° C. Both tap water and powdered laboratory chow (Laboratory chow #5001, Purina Mills, Inc.) were provided ad libitum to the rats.
Rats used in the study were surgically equipped with an infusion cannula in the third ventricle. Under sodium pentobarbital anesthesia (50 mg/kg ip), each rat was fixed in a stereotaxic apparatus, its skull was exposed, and two small screws were threaded into the skull to anchor the cannula. A three millimeter diameter hole was drilled in the skull on the midline six millimeters anterior to ear bar zero. […]
In the feeding study, food was removed twenty four hours before the experiment, but free access to water was allowed. […] After twenty four hours of fasting, each rat was re-fed at 13:00 hour, and powdered food consumption was measured at thirty minutes after the resumption of feeding. […]
Data from the feeding study were evaluated using one-way analysis of variance, and multiple comparisons were carried out using the method of least significant difference. […]

[2] = apo A-IV appearing in mesenteric lymph after a lipid meal; cited from earlier work
male Sprague Dawley rats [3] = conditions: cited from earlier work

Row | Molecule | food intake in animal studies (animal) | other results
1 | CSCC[C@H](NC(=O)[C@H](CC(C)C)NC(=O)[C@H](Cc1cnc[nH]1)NC(=O)CNC(=O)[C@@H](NC(=O)[C@H](C)NC(=O)[C@H](Cc1c[nH]c2ccccc12)NC(=O)[C@H](CCC(N)=O)NC(=O)[C@H](CC(N)=O)NC(=O)CNC(=O)[C@H](CC(C)C)NC(=O)[C@H](CCCN=C(N)N)NC(=O)[C@H](CCC(N)=O)NC(=O)[C@@H]1CCC(=O)N1)C(C)C)C(N)=O [bombesin] | decrease food intake | –
2 | EVTSDQVANVMWDYFTQL SNNAKEAVEQLQ (EVTSDQVANVMWDYFTQLSNNAKEAVEQLQ) [SEQ ID NO:1, 30-mer, first thirty amino acids of the mature rat apo A-IV] | – | inhibition of food intake (male Sprague Dawley rats [1]; synthetic peptide infused into third ventricle, doses 0.125-1.0 μg per rat, 24 h fasted, food consumption at thirty minutes after re-feeding): inhibit food intake in a dose-dependent manner
3 | Glucagon | decrease food intake | –
4 | anorectin | decrease food intake | –
5 | calcitonin (CGNLSTCMLGTYTQDFNKFHTFPQTAIGVGAP; ends and bridges not checked; cysteine pairing not given here; UniProt P01258 85-116, looked up) [peptide proposed as affecting eating behavior] | decrease food intake | –
6 | corticotropin releasing hormone (SEEPPISLDLTFHLLREVLEMARAEQLAQQAHSNRKLMEII; ends and bridges not checked; UniProt P06850 154-194, looked up) [peptide proposed as affecting eating behavior] | decrease food intake | –
7 | cyclo-HisPro | decrease food intake | –
8 | enterostatin | decrease food intake | –
9 | B1 | – | food intake [2]: suppresses food intake; food intake after central administration (male Sprague Dawley rats [3]; administered centrally): significantly suppressed in a dose-dependent manner; potency administered centrally versus peripherally (male Sprague Dawley rats [3]; central vs peripheral administration): more than 50 fold
10 | B2 | decrease food intake | –
11 | B3 | – | suppression of food intake (male Sprague Dawley rats [1]; third ventricle infusion, 1.5 and 3 μg per rat): effective in suppressing food intake in rats in a dose dependent manner
